# Results: patent publication US20100254965A1, “Adenosine Signaling in Diagnosis, Treatment, and Prevention of Priapism and Erectile Dysfunction” (BOARD OF REGENTS ,THE UNIVERSITY OF TEXAS SYSTEM, priority 2006, published 2010)
# Entries after “also recorded” stand apart in the source; their conditions may differ.
# Tested on: corpus cavernosal strips (CCS)
# Experiment: cGMP production in CCS (penile organ culture) in response to adenosine
# Assay type: cell-based, mouse
# Protocol: FIG. 18. Adenosine stimulated both cAMP and cGMP induction in corpus cavernosal smooth muscle cells (CCSM) via A2BR activation. (a) Adenosine receptor expression profile in purified primary CCSM. CCSM were purified from adult mouse penes. […] (b) CCSM were isolated and cultured from mouse penes. The cells were switched to serum-free medium and treated with different concentrations of adenosine with or without A2BR antagonist (MRS1706-10 μM), A2AR antagonist (ZM241385-50 nM) or A2AR agonist (CGS-21680-10 μM) alone for 10 min. Then cellular extracts were collected and cAMP levels were measured using an ELISA kit. […] After 10 min treatment, the cellular extracts were collected and cAMP levels were measured by using a commercial enzyme immunoassay kit (Amersham Pharmacia). […] 10 min after treatment, cellular extracts were collected and cGMP levels were measured by using a commercial enzyme immunoassay kit (Amersham Pharmacia). Data are expressed as mean±SE. *p<0.05, adenosine treated versus the control; **p<0.05, adenosine treated with MRS1706 versus the adenosine treated; ***p<0.05, CCS of A2BR-deficient mice treated with adenosine versus the CCS of wild type mice treated with adenosine. […] After 10 min treatment, the cellular extracts were collected and cAMP levels were measured by using a commercial enzyme immunoassay kit (Amersham Pharmacia). […]
smiles,measurement,setting,value
Nc1ncnc2c1ncn2[C@@H]1O[C@H](CO)[C@@H](O)[C@H]1O [adenosine],cGMP production,CCS of A2BR-deficient mice,absent
same,cGMP production,wild type penile organ culture (CCS),can increase cGMP production; also recorded: induced by adenosine in a dosage-dependent manner
